Assays:
Akt3 (pT305) = molecular target: T1, Akt3 (pT305) (Homo sapiens, UniProt Q9Y243); assay: Western blot and ratiometric ELISA of Akt phosphorylation in HEK293T cells; format: cell-based; conditions: 5 μM, 48 hours
T1 construct: expressed in transfected cells; host or cells: HEK293T
Protocol: After this time, cells were lysed and analyzed by antibodies for phosphorylated T305 (pT305) of Akt3, Halo (Akt), and Actin (loading control). […] FIG. 23F is a graph showing proliferation curves. […] After this time, the number of viable cells was calculated using AlamarBlue®. Proliferation curves were fitted to the PI50 equation (EQN. 4). […] FIG. 23H is a graph showing the percentage of viable cells. […] The percentage of growth relative to DMSO-treated cells is shown for the 48 hour point and the 72 hour point. FIG. 23I is a schematic showing the different methods used to derive the data in 23H.
The proteins in gel were transferred onto a PVDF membrane in Towbin buffer at 90 V for 2 hours at 4° C. or at 33 V overnight at 4° C. […] Proteins were visualized using Pierce™ ECL Western Blotting Substrate (32106, Thermo Fisher), Pierce™ ECL2 Western Blotting Substrate (32132, Thermo Fisher) or SuperSignal™ Western Blot Enhancer (46640, Thermo Fisher), depending on the signal strength.
Anti-Halo antibody at 1 μg/mL concentration in sodium bicarbonate buffer (pH 9.6) was added to a 96-well white plate (80 μL […]) at 4° C. for 24 hours. After this, the incubation buffer was removed and the wells were washed once with TBS-T2 (100 mM Tris, 150 mM NaCl 0.03% Tween-20) and then blocked in 5% BSA in TBS-T2 (280 μL per well) for 3-5 hours at room temperature. […]

recombinant Akt3 = molecular target: T2, recombinant Akt3 (Homo sapiens, UniProt Q9Y243); assay: NADH-coupled Akt activity assay (progress curve analysis); format: biochemical
T2 construct: purchased Active Motif 31147
T2 sequence (Q9Y243 whole entry): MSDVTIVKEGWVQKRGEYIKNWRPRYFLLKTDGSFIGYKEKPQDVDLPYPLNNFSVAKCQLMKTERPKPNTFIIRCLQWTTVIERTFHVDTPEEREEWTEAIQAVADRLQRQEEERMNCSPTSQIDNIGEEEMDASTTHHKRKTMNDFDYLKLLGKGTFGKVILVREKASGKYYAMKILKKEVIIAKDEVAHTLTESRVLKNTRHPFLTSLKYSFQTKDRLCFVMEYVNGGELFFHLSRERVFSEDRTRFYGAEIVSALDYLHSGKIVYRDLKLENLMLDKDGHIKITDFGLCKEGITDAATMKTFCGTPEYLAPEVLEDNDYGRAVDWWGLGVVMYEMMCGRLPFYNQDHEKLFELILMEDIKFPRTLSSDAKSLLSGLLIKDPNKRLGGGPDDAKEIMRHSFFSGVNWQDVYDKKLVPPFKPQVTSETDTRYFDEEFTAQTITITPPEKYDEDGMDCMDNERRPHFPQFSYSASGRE
Source text: FIGS. 20A-20H show the kinetic analysis of Akt3 covalent inhibition by MK-HNE, MK-FNE, and MK-dHNE. FIG. 20A is a schematic representation of the NADH-coupled kinetic assay to monitor the progress of Akt-catalyzed phosphorylation of the known peptide substrate, Crosstide (Akt substrate, cat. No. sc-471145, Santa Cruz). […] The solid curves are the best nonlinear fits of the data using EQN. 1. FIG. 20D is a graph showing a replot of kobs for the progress curve as a function of MK-HNE concentration. FIG. 20F is a graph showing a replot of kobs for the progress curve as a function of MK-dHNE concentration. The hyperbolic curve is the best nonlinear fit to EQN. 2. FIG. 20H is a graph showing kobs for the progress curve as a function of MK-FNE concentration fit to a cooperative binding equation using EQN 3. Inhibition of recombinant Akt3 ([…]) by MK-HNE, MK-dHNE, and MK-FNE was assayed by progress curve analysis: inhibitor was added to enzyme in assay buffer containing 100 nM Akt3 kinase, 100 μM Crosstide (Akt substrate, cat. No. sc-471145, Santa Cruz), 500 μM ATP, 4 mM TCEP, 5 mM phosphoenolpyruvate, pyruvate kinase (24-40 units/mL), lactate dehydrogenase (36-56 units/mL), 500 μM NADH and various concentrations of the inhibitor. All curves were background rate subtracted. Product formation was measured continuously for 6 min. Over this time, Akt3 activity was constant in the absence of the inhibitors.
To a 96-well plate with varying amounts of indicated inhibitors was added the kinetic assay mixture containing, in final concentrations, 50 mM HEPES, 100 mM NaCl, 10 mM MgCl2, 5 mM phosphoenolpyruvate, 500 μM NADH, 100 μM crosstide (the Akt substrate, cat. No. sc-471145, Santa Cruz), pyruvate kinase (24-40 units/mL), lactate dehydrogenase (36-56 units/mL), 4 mM TCEP, 500 μM ATP. […] The progress of phosphorylation was monitored by reading absorbance at 340 nm over the course of study. […]
To gain a more quantitative understanding of the covalent inhibitors, inhibition of Akt3 by MK-HNE in vitro was investigated. […] Loss of NADH was measured by decrease in A340 as a function of time. […]

BT-549 = assay: Cell viability assay (AlamarBlue); format: cell-based; conditions: BT-549, 72 hours
Protocol: (§1) FIGS. 22A and 22D are graphs showing results of cytotoxicity assays for MDA-MB-468 (FIG. 22A) and BT-549 (FIG. 22D). […] Stated cell lines were plated in 96-well plates (3000 cells per well) in the presence of the stated concentration of inhibitor. After 72 hours, the number of viable cells was analyzed by AlamarBlue®. Proliferation inhibition 50% (PI50) values were calculated by fitting data to “PI50 equation” (EQN 4) (FIG. 22C). MDA cells were transfected with the stated siRNA using lipofectamine 3000 for 12 hours. […] After 72 hours, the number of viable cells was calculated using AlamarBlue®. FIG. 22F is a schematic showing AlamarBlue® viability assay. […] MDA-MB-468 cells were treated with the stated drugs for 72 hours at the PI60 and PI80. After this time, cells were harvested, fixed/permeabilized with ethanol and DNA content was stained using propidium iodide (visualized in the 488-3 channel). RNA was removed simultaneously using RNAse. After 30 min at room temperature, cells were analyzed by flow cytometry.
(§2) Indicated cells were plated in a 96-well plate containing the DMEM complete medium (see Example 11 for complete medium formulation, 100 μL per well) with a density of 3,000-5,000 cells per well for 12 hours followed by the addition of varying concentrations of inhibitors in rinse medium (100 μL). The cells were allowed to grow for 72 hours and 100 μL of the culture medium was removed from each well. This was followed by the addition of 10 μL AlamarBlue® reagent to each well. The fluorescence emission signals at 590 nm were read by Cytation 3 cell imaging multi-mode reader (BioTeK) using an excitation wavelength of 560 nm. Curve fitting and data analysis were performed using Prism software.

MDA-MB-468 = assay: Cell viability assay (AlamarBlue); format: cell-based; conditions: MDA-MB-468, 72 hours
Protocol: as §1, §2

T1 sequence (Q9Y243 whole entry): as above

| SMILES | phosphorylation of T305 of Akt3 (Akt3 (pT305)) | n (Hill coefficient) (recombinant Akt3; cooperative binding fit of kobs vs concentration) | kinact/KI (recombinant Akt3; recombinant Akt3, as stated in text) | toxicity / potency relative to MK-2206 (BT-549) | toxicity / potency relative to MK-2206 (MDA-MB-468) | inhibition profile of Akt3 (recombinant Akt3; progress curves) |
| --- | --- | --- | --- | --- | --- | --- |
| NC1(c2ccc(-c3nc4ccn5c(=O)[nH]nc5c4cc3-c3ccccc3)cc2)CCC1 [MK-2206] | lowered phospho-T305 (pT305) levels considerably |  |  |  |  |  |
| C#CCCCC(F)/C=C/C(=O)NC1(c2ccc(-c3nc4ccn5c(=O)[nH]nc5c4cc3-c3ccccc3)cc2)CCC1.Cl (stereo not shown) [MK-FNE, (E)-8-(4-(1-(4-Fluoronon-2-en-8-ynamido)cyclobutyl)phenyl)-3-oxo-9-phenyl-2,3-dihydro-[1,2,4]triazolo[3,4-f][1,6]naphthyridin-7-ium Chloride] |  | 3.2 | ~10000 M⁻¹ s⁻¹ | similarly potent to MK-2206 | similarly potent to MK-2206 |  |
| C#CCCCC(O)/C=C/C(=O)NC1(c2ccc(-c3nc4ccn5c(=O)[nH]nc5c4cc3-c3ccccc3)cc2)CCC1.Cl (stereo not shown) [MK-HNE, (E)-8-(4-(1-(4-Hydroxynon-2-en-8-ynamido)cyclobutyl)phenyl)-3-oxo-9-phenyl-2,3-dihydro-[1,2,4]triazolo[3,4-f][1,6]naphthyridin-7-ium Chloride] | did not affect phosphorylation levels |  |  |  |  | time-dependent inhibitor |
